Assay results taken from patent publication US12528826B2, “[1,4]oxazepino[2,3-c]quinolinone derivatives as BCL6 inhibitors” (Cancer Research Technology Limited, priority 2019, dated 2026).

Target: T1, Trx-6×His-BCL6 (human BCL6 BTB domain covering amino-acid sequence 5-129) (Homo sapiens, UniProt P41182)
T1 construct: made in house
Experiment: HTRF assay (BCL6 / BCOR peptide)
Type: binding
Settings: 1 nM Trx-6×His-BCL6, 300 nM BCOR-AF633 peptide, 2 hours incubation at room temperature; read-out: HTRF avg pIC50 (converted)
Protocol: After 2 hours incubation at room temperature the plate was read on a Pherastar FSX (BMG Labtech) plate reader equipped with 337 nm laser excitation filter, a first emission filter at 620 nm and a second emission filter at 665 nm. The % inhibition at each concentration was calculated by normalising FRET ratio to the appropriate high (DMSO with all reagents) and low (DMSO without BCL6) controls.

SMILES	IC50 [nM]
CC1CN(c2ncc(Cl)c(Nc3ccc4c(c3)c3c(c(=O)n4C)OCC(F)(F)[C@H](C4CC4)N3)n2)CC(C)[S+]1[O-] (stereo partly drawn) [Example 12x09, (2S)-10-((5-chloro-2-(2,6-dimethyl-1-oxidothiomorpholino)pyrimidin-4-yl)amino)-2-cyclopropyl-3,3-difluoro-7-methyl-1,2,3,4-tetrahydro-[1,4]oxazepino[2,3-c]quinolin-6(7H)-one]	1.7
Cn1c(=O)c2c(c3cc(Nc4nc(N5CCOCC5)ncc4F)ccc31)N[C@@H](C1CC1)C(F)(F)CO2 [Example 13p06, (S)-2-cyclopropyl-3,3-difluoro-10-((5-fluoro-2-morpholinopyrimidin-4-yl)amino)-7-methyl-1,2,3,4-tetrahydro-[1,4]oxazepino[2,3-c]quinolin-6(7H)-one]	11.7
Cn1c(=O)c2c(c3cc(Nc4nc(N5CCCC(C#N)C5)ncc4Cl)ccc31)N[C@@H](C1CC1)C(F)(F)CO2 (stereo partly drawn) [Example 12x23, 1-(5-chloro-4-(((S)-2-cyclopropyl-3,3-difluoro-7-methyl-6-oxo-1,2,3,4,6,7-hexahydro-[1,4]oxazepino[2,3-c]quinolin-10-yl)amino)pyrimidin-2-yl)piperidine-3-carbonitrile]	5.13
Cn1c(=O)c2c(c3cc(Nc4nc(N5C[C@@H](F)C[C@H]5CO)ncc4Cl)ccc31)N[C@@H](C1CC1)C(F)(F)CO2 [Example 12x48a, (S)-10-((5-chloro-2-((2S,4S)-4-fluoro-2-(hydroxymethyl)pyrrolidin-1-yl)pyrimidin-4-yl)amino)-2-cyclopropyl-3,3-difluoro-7-methyl-1,2,3,4-tetrahydro-[1,4]oxazepino[2,3-c]quinolin-6(7H)-one]	4.27
Cn1c(=O)c2c(c3cc(Nc4nc(N5CC[C@H]5CO)ncc4Cl)ccc31)N[C@@H](C1CC1)C(F)(F)CO2 [Example 12x33a, (S)-10-((5-chloro-2-((S)-2-(hydroxymethyl)azetidin-1-yl)pyrimidin-4-yl)amino)-2-cyclopropyl-3,3-difluoro-7-methyl-1,2,3,4-tetrahydro-[1,4]oxazepino[2,3-c]quinolin-6(7H)-one]	2.14
Cn1c(=O)c2c(c3cc(Nc4nc(N5CCC[C@@H](O)C5)ncc4Cl)ccc31)N[C@@H](C1CC1)C(F)(F)CO2 [Example 1j, (S)-10-((5-chloro-2-((R)-3-hydroxypiperidin-1-yl)pyrimidin-4-yl)amino)-2-cyclopropyl-3,3-difluoro-7-methyl-1,2,3,4-tetrahydro-[1,4]oxazepino[2,3-c]quinolin-6(7H)-one]	2.95
Cn1c(=O)c2c(c3cc(Nc4nc(N5CC(F)(F)C5)ncc4Cl)ccc31)N[C@@H](C1CC1)C(F)(F)CO2 [Example 1a, (S)-10-((5-chloro-2-(3,3-difluoroazetidin-1-yl)pyrimidin-4-yl)amino)-2-cyclopropyl-3,3-difluoro-7-methyl-1,2,3,4-tetrahydro-[1,4]oxazepino[2,3-c]quinolin-6(7H)-one]	10.2
C[C@H]1C[C@@H](F)CN(c2ncc(Cl)c(Nc3ccc4c(c3)c3c(c(=O)n4C)OCC(F)(F)[C@H](C4CC4)N3)n2)C1 [Example 12x03, (S)-10-((5-chloro-2-((3R,5S)-3-fluoro-5-methylpiperidin-1-yl)pyrimidin-4-yl)amino)-2-cyclopropyl-3,3-difluoro-7-methyl-1,2,3,4-tetrahydro-[1,4]oxazepino[2,3-c]quinolin-6(7H)-one]	15.5
Cn1c(=O)c2c(c3cc(Nc4nc(N5CC(C)(F)C5)ncc4Cl)ccc31)N[C@@H](C1CC1)C(F)(F)CO2 [Example 1m, (S)-10-((5-chloro-2-(3-fluoro-3-methylazetidin-1-yl)pyrimidin-4-yl)amino)-2-cyclopropyl-3,3-difluoro-7-methyl-1,2,3,4-tetrahydro-[1,4]oxazepino[2,3-c]quinolin-6(7H)-one]	9.33

Continued, values first:

IC50 [nM]	SMILES
4.68	CN(CCC(C)(C)O)c1ncc(Cl)c(Nc2ccc3c(c2)c2c(c(=O)n3C)OCC(F)(F)[C@H](C3CC3)N2)n1 [Example 9v, (S)-10-((5-chloro-2-((3-hydroxy-3-methylbutyl)(methyl)amino)pyrimidin-4-yl)amino)-2-cyclopropyl-3,3-difluoro-7-methyl-1,2,3,4-tetrahydro-[1,4]oxazepino[2,3-c]quinolin-6(7H)-one]
2.95	C[C@H]1C[C@@H](N)CN(c2ncc(Cl)c(Nc3ccc4c(c3)c3c(c(=O)n4C)OCC(F)(F)[C@H](C4CC4)N3)n2)C1 [Example 12c, (S)-10-((2-((3R,5S)-3-amino-5-methylpiperidin-1-yl)-5-chloropyrimidin-4-yl)amino)-2-cyclopropyl-3,3-difluoro-7-methyl-1,2,3,4-tetrahydro-[1,4]oxazepino[2,3-c]quinolin-6(7H)-one]
7.59	CC1CN(c2ncc(Cl)c(Nc3ccc4c(c3)c3c(c(=O)n4C)OCC(F)(F)[C@H](C4CC4)N3)n2)C1 [Example 11o, (S)-10-((5-chloro-2-(3-methylazetidin-1-yl)pyrimidin-4-yl)amino)-2-cyclopropyl-3,3-difluoro-7-methyl-1,2,3,4-tetrahydro-[1,4]oxazepino[2,3-c]quinolin-6(7H)-one]
2.63	Cn1c(=O)c2c(c3cc(Nc4nc(N5CC(O)CC6(CCC6)C5)ncc4Cl)ccc31)N[C@@H](C1CC1)C(F)(F)CO2 (mixture of isomers) [Example 12j, (S)-10-((5-chloro-2-((R)-8-hydroxy-6-azaspiro[3.5]nonan-6-yl)pyrimidin-4-yl)amino)-2-cyclopropyl-3,3-difluoro-7-methyl-1,2,3,4-tetrahydro-[1,4]oxazepino[2,3-c]quinolin-6(7H)-one:(S)-10-((5-chloro-2-((S)-8-hydroxy-6-azaspiro[3.5]nonan-6-yl)pyrimidin-4-yl)amino)-2-cyclopropyl-3,3-difluoro-7-methyl-1,2,3,4-tetrahydro-[1,4]oxazepino[2,3-c]quinolin-6(7H)-one (1:1)]
3.47	Cn1c(=O)c2c(c3cc(Nc4nc(N5CC(CC#N)C5)ncc4Cl)ccc31)N[C@@H](C1CC1)C(F)(F)CO2 [Example 11t, (S)-2-(1-(5-chloro-4-((2-cyclopropyl-3,3-difluoro-7-methyl-6-oxo-1,2,3,4,6,7-hexahydro-[1,4]oxazepino[2,3-c]quinolin-10-yl)amino)pyrimidin-2-yl)azetidin-3-yl)acetonitrile]
44.7	Cn1c(=O)c2c(c3cc(Nc4nc(N5CCCC6(CC6)C5)ncc4Cl)ccc31)N[C@@H](C1CC1)C(F)(F)CO2 [Example 11l, (S)-10-((5-chloro-2-(5-azaspiro[2.5]octan-5-yl)pyrimidin-4-yl)amino)-2-cyclopropyl-3,3-difluoro-7-methyl-1,2,3,4-tetrahydro-[1,4]oxazepino[2,3-c]quinolin-6(7H)-one]
9.55	CC1CN(c2ncc(Cl)c(Nc3ccc4c(c3)c3c(c(=O)n4C)OCC(F)(F)[C@H](C4CC4)N3)n2)CCS1 (mixture of isomers) [Example 12f, (S)-10-((5-chloro-2-((R)-2-methylthiomorpholino)pyrimidin-4-yl)amino)-2-cyclopropyl-3,3-difluoro-7-methyl-1,2,3,4-tetrahydro-[1,4]oxazepino[2,3-c]quinolin-6(7H)-one:(S)-10-((5-chloro-2-((S)-2-methylthiomorpholino)pyrimidin-4-yl)amino)-2-cyclopropyl-3,3-difluoro-7-methyl-1,2,3,4-tetrahydro-[1,4]oxazepino[2,3-c]quinolin-6(7H)-one (1:1)]
6.76	C[C@H]1C[C@@H](O)CN(c2cc(Nc3ccc4c(c3)c3c(c(=O)n4C)OCC(F)(F)[C@H](C4CC4)N3)c(Cl)cn2)C1 [Example 13a, (S)-10-((5-chloro-2-((3R,5S)-3-hydroxy-5-methylpiperidin-1-yl)pyridin-4-yl)amino)-2-cyclopropyl-3,3-difluoro-7-methyl-1,2,3,4-tetrahydro-[1,4]oxazepino[2,3-c]quinolin-6(7H)-one]
10.2	Cn1c(=O)c2c(c3cc(Nc4nc(N5CCCC(CF)C5)ncc4Cl)ccc31)N[C@@H](C1CC1)C(F)(F)CO2 (mixture of isomers) [Example 9f, (S)-10-((5-chloro-2-((R)-3-(fluoromethyl)piperidin-1-yl)pyrimidin-4-yl)amino)-2-cyclopropyl-3,3-difluoro-7-methyl-1,2,3,4-tetrahydro-[1,4]oxazepino[2,3-c]quinolin-6(7H)-one; (S)-10-((5-chloro-2-((S)-3-(fluoromethyl)piperidin-1-yl)pyrimidin-4-yl)amino)-2-cyclopropyl-3,3-difluoro-7-methyl-1,2,3,4-tetrahydro-[1,4]oxazepino[2,3-c]quinolin-6(7H)-one]
2.75	Cn1c(=O)c2c(c3cc(Nc4nc(N5CC6CCC(C5)N6CC5CC5)ncc4Cl)ccc31)N[C@@H](C1CC1)C(F)(F)CO2 [Example 9y, (2S)-10-((5-chloro-2-(8-(cyclopropylmethyl)-3,8-diazabicyclo[3.2.1]octan-3-yl)pyrimidin-4-yl)amino)-2-cyclopropyl-3,3-difluoro-7-methyl-1,2,3,4-tetrahydro-[1,4]oxazepino[2,3-c]quinolin-6(7H)-one]
2.29	Cn1c(=O)c2c(c3cc(Nc4nc(N5CCC(F)(F)C(CC(N)=O)C5)ncc4Cl)ccc31)N[C@@H](C1CC1)C(F)(F)CO2 (mixture of isomers) [Example 9g]
9.77	CCCN(CCO)c1ncc(Cl)c(Nc2ccc3c(c2)c2c(c(=O)n3C)OCC(F)(F)[C@H](C3CC3)N2)n1 [Example 11k, (S)-10-((5-chloro-2-((2-hydroxyethyl)(propyl)amino)pyrimidin-4-yl)amino)-2-cyclopropyl-3,3-difluoro-7-methyl-1,2,3,4-tetrahydro-[1,4]oxazepino[2,3-c]quinolin-6(7H)-one]
4.79	Cn1c(=O)c2c(c3cc(Nc4nc(N5CC(F)C5)ncc4Cl)ccc31)N[C@@H](C1CC1)C(F)(F)CO2 [Example 11q, (S)-10-((5-chloro-2-(3-fluoroazetidin-1-yl)pyrimidin-4-yl)amino)-2-cyclopropyl-3,3-difluoro-7-methyl-1,2,3,4-tetrahydro-[1,4]oxazepino[2,3-c]quinolin-6(7H)-one]
